Measurements from ChEMBL document CHEMBL3991601, “The target landscape of clinical kinase drugs” (Science, 2017).
Activity calls are given as the source filed them.

target: Dual specificity tyrosine-phosphorylation-regulated kinase 1B (Homo sapiens, UniProt Q9Y463); details: not given
Also: in the data inactive means no Kd found up to 30 µM.

Dual specificity tyrosine-phosphorylation-regulated kinase 1B, sequence (Q9Y463 whole entry): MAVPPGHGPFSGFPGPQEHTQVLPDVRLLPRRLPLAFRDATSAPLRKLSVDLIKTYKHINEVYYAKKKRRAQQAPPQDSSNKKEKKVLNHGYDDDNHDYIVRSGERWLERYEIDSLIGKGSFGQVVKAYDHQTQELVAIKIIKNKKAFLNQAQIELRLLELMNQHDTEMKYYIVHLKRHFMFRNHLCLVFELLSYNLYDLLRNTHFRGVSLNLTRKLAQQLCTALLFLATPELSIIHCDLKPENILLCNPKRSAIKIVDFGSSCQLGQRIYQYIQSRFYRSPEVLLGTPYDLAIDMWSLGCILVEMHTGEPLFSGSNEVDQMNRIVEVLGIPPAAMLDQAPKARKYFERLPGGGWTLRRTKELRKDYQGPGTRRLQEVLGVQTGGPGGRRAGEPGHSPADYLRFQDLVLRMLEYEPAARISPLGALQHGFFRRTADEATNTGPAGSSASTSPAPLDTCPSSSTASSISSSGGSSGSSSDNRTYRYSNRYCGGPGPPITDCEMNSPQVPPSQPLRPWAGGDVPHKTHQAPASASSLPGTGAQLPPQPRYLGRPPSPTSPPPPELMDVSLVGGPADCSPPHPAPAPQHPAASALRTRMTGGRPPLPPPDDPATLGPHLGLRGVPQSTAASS

| SMILES | Kd |
| --- | --- |
| Cc1cc(-c2cc(O)ccc2Cl)cc2nnc(Nc3ccc(OCCN4CCCC4)cc3)nc12 | > 30 µM (inactive) |
| Cc1ccc(NC(=O)c2ccc(CN3CC[C@H](N(C)C)C3)c(C(F)(F)F)c2)cc1Nc1nccc(-c2cncnc2)n1 [BAFETINIB] | > 30 µM (inactive) |
| CC[C@H](Nc1ncnc2[nH]cnc12)c1nc2cccc(F)c2c(=O)n1-c1ccccc1 [IDELALISIB] | > 30 µM (inactive) |
| CC(=O)Nc1cccc(-n2c(=O)n(C3CC3)c(=O)c3c(Nc4ccc(I)cc4F)n(C)c(=O)c(C)c32)c1 [TRAMETINIB] | > 30 µM (inactive) |

target: Tyrosine-protein kinase JAK2 (Homo sapiens, UniProt O60674); details: not given
Sequence (O60674 whole entry): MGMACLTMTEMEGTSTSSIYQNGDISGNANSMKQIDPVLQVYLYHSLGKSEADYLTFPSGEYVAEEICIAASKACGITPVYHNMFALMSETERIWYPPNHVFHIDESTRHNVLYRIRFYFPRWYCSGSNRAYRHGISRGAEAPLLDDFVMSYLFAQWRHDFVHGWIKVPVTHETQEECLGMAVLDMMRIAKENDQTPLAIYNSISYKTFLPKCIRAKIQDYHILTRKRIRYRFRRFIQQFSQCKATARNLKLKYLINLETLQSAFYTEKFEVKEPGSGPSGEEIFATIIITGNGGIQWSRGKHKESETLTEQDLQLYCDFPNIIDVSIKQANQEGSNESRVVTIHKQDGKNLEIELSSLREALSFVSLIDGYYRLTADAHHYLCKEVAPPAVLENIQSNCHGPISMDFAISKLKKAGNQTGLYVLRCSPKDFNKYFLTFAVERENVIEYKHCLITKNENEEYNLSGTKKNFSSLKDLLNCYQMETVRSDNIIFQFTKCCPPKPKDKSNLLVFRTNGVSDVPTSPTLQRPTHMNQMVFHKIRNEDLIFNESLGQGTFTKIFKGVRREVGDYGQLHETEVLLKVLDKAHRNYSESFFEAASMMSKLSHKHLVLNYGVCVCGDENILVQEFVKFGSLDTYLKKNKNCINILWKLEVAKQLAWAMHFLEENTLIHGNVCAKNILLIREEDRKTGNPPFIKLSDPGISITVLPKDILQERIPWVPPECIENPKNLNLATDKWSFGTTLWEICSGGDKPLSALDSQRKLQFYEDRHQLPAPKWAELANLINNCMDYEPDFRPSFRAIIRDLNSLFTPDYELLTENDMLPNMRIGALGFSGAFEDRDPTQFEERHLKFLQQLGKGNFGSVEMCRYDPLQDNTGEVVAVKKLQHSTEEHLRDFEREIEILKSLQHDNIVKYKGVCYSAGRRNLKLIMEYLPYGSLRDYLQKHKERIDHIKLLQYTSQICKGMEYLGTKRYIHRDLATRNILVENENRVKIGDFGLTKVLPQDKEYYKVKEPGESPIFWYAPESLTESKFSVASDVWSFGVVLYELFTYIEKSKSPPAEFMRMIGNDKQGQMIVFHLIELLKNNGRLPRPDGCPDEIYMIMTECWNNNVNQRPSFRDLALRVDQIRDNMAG

| SMILES | Kd |
| --- | --- |
| Cc1ccc(NC(=O)c2ccc(CN3CC[C@H](N(C)C)C3)c(C(F)(F)F)c2)cc1Nc1nccc(-c2cncnc2)n1 [BAFETINIB] | > 30 µM (inactive) |
| CC(=O)Nc1cccc(-n2c(=O)n(C3CC3)c(=O)c3c(Nc4ccc(I)cc4F)n(C)c(=O)c(C)c32)c1 [TRAMETINIB] | > 30 µM (inactive) |
| CC[C@@H]1C(=O)N(C)c2cnc(Nc3ccc(C(=O)N[C@H]4CC[C@H](N5CCN(CC6CC6)CC5)CC4)cc3OC)nc2N1C(C)C [VOLASERTIB] | > 30 µM (inactive) |

target: T1, Dual specificity mitogen-activated protein kinase kinase 4 (Homo sapiens, UniProt P45985); details: not given
T1 sequence (P45985 whole entry): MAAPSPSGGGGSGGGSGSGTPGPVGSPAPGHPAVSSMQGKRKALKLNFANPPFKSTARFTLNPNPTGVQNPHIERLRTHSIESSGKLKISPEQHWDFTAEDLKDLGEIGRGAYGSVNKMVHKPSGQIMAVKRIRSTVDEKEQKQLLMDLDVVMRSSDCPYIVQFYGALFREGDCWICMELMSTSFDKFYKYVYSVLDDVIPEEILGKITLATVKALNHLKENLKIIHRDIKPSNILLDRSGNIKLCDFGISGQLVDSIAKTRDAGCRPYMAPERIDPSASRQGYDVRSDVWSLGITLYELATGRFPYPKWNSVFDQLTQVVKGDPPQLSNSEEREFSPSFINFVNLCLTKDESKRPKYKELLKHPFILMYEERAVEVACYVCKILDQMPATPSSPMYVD

| SMILES | Kd |
| --- | --- |
| Cc1ccc(NC(=O)c2ccc(CN3CC[C@H](N(C)C)C3)c(C(F)(F)F)c2)cc1Nc1nccc(-c2cncnc2)n1 [BAFETINIB] | > 30 µM (inactive) |
| O=C(c1ccc(F)c(F)c1Nc1ccc(I)cc1F)N1CC(O)([C@@H]2CCCCN2)C1 [COBIMETINIB] | > 30 µM (inactive) |
| CCc1cnn2c(NCc3ccc[n+]([O-])c3)cc(N3CCCC[C@H]3CCO)nc12 [DINACICLIB] | > 30 µM (inactive) |
| CC[C@H](Nc1ncnc2[nH]cnc12)c1nc2cccc(F)c2c(=O)n1-c1ccccc1 [IDELALISIB] | > 30 µM (inactive) |
| CC(=O)Nc1cccc(-n2c(=O)n(C3CC3)c(=O)c3c(Nc4ccc(I)cc4F)n(C)c(=O)c(C)c32)c1 [TRAMETINIB] | > 30 µM (inactive) |

target: MAP kinase-activated protein kinase 3 (Homo sapiens, UniProt Q16644); details: not given
Sequence (Q16644 whole entry): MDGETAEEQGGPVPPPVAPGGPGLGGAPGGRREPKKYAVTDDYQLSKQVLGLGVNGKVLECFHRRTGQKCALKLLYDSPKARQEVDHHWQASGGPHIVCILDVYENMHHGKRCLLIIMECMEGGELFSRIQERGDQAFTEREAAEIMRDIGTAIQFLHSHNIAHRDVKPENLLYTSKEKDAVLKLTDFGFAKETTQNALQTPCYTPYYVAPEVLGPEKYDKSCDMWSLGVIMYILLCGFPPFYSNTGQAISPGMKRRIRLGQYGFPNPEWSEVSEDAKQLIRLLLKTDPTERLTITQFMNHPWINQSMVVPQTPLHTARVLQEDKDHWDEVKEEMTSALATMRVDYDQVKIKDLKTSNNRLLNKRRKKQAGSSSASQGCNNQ

| SMILES | Kd |
| --- | --- |
| Cc1cc(-c2cc(O)ccc2Cl)cc2nnc(Nc3ccc(OCCN4CCCC4)cc3)nc12 | > 30 µM (inactive) |
| Cc1ccc(NC(=O)c2ccc(CN3CC[C@H](N(C)C)C3)c(C(F)(F)F)c2)cc1Nc1nccc(-c2cncnc2)n1 [BAFETINIB] | 0.023 µM (active) |
| O=C(c1ccc(F)c(F)c1Nc1ccc(I)cc1F)N1CC(O)([C@@H]2CCCCN2)C1 [COBIMETINIB] | > 30 µM (inactive) |
| CC[C@H](Nc1ncnc2[nH]cnc12)c1nc2cccc(F)c2c(=O)n1-c1ccccc1 [IDELALISIB] | > 30 µM (inactive) |
| CC(=O)Nc1cccc(-n2c(=O)n(C3CC3)c(=O)c3c(Nc4ccc(I)cc4F)n(C)c(=O)c(C)c32)c1 [TRAMETINIB] | > 30 µM (inactive) |

target: 5'-AMP-activated protein kinase subunit gamma-1 (Homo sapiens, UniProt P54619); details: not given
Sequence (P54619 whole entry): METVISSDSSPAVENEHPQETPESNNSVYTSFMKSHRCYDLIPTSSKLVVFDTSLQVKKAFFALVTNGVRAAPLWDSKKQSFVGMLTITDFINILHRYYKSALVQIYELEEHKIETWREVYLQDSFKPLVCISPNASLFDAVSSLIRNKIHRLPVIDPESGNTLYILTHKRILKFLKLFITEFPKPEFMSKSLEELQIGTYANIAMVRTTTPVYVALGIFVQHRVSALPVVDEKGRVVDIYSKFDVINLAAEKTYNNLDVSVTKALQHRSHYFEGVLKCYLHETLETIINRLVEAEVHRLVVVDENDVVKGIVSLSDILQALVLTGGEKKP

| SMILES | Kd |
| --- | --- |
| CCc1cnn2c(NCc3ccc[n+]([O-])c3)cc(N3CCCC[C@H]3CCO)nc12 [DINACICLIB] | > 30 µM (inactive) |
| CC[C@H](Nc1ncnc2[nH]cnc12)c1nc2cccc(F)c2c(=O)n1-c1ccccc1 [IDELALISIB] | > 30 µM (inactive) |
| CC[C@@H]1C(=O)N(C)c2cnc(Nc3ccc(C(=O)N[C@H]4CC[C@H](N5CCN(CC6CC6)CC5)CC4)cc3OC)nc2N1C(C)C [VOLASERTIB] | > 30 µM (inactive) |

target: T2, General transcription and DNA repair factor IIH helicase subunit XPD (Homo sapiens, UniProt P18074); details: not given
T2 sequence (P18074 whole entry): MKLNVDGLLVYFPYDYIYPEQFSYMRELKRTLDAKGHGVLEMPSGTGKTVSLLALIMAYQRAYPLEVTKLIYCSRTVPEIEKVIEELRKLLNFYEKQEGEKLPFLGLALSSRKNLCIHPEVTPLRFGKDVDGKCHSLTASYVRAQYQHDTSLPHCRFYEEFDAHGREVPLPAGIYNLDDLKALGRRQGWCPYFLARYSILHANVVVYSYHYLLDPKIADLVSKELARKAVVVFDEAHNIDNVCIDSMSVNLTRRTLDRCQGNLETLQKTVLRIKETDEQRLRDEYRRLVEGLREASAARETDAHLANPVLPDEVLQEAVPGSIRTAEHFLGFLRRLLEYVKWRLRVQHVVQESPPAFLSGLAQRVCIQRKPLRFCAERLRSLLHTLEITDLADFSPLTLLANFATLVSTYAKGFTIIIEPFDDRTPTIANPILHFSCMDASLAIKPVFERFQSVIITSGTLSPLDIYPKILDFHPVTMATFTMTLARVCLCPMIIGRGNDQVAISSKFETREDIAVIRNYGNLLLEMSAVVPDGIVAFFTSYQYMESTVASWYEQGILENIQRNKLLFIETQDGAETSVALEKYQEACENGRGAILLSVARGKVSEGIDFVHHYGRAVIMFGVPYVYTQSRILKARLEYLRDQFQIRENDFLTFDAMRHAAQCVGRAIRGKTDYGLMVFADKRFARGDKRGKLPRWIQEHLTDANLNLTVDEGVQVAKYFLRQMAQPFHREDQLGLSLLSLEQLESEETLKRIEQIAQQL

| SMILES | Kd |
| --- | --- |
| CCc1cnn2c(NCc3ccc[n+]([O-])c3)cc(N3CCCC[C@H]3CCO)nc12 [DINACICLIB] | 0.56 µM (active) |
| CC[C@H](Nc1ncnc2[nH]cnc12)c1nc2cccc(F)c2c(=O)n1-c1ccccc1 [IDELALISIB] | > 30 µM (inactive) |
| CC[C@@H]1C(=O)N(C)c2cnc(Nc3ccc(C(=O)N[C@H]4CC[C@H](N5CCN(CC6CC6)CC5)CC4)cc3OC)nc2N1C(C)C [VOLASERTIB] | > 30 µM (inactive) |

target: Cyclin-dependent kinase 10 (Homo sapiens, UniProt Q15131); details: not given
Sequence (Q15131 whole entry): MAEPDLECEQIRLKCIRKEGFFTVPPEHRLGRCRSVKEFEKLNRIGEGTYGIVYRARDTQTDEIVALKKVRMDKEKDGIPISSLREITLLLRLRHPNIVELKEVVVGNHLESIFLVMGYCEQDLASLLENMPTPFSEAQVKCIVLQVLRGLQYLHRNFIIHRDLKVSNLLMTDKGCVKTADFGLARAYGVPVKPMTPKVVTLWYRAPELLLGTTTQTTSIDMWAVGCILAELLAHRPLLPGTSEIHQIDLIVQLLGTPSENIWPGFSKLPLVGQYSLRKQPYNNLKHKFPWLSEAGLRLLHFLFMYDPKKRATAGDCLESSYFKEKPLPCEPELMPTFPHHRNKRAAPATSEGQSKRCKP

| SMILES | Kd |
| --- | --- |
| Cc1ccc(NC(=O)c2ccc(CN3CC[C@H](N(C)C)C3)c(C(F)(F)F)c2)cc1Nc1nccc(-c2cncnc2)n1 [BAFETINIB] | > 30 µM (inactive) |
| CC(=O)Nc1cccc(-n2c(=O)n(C3CC3)c(=O)c3c(Nc4ccc(I)cc4F)n(C)c(=O)c(C)c32)c1 [TRAMETINIB] | > 30 µM (inactive) |
| CC[C@@H]1C(=O)N(C)c2cnc(Nc3ccc(C(=O)N[C@H]4CC[C@H](N5CCN(CC6CC6)CC5)CC4)cc3OC)nc2N1C(C)C [VOLASERTIB] | > 30 µM (inactive) |

target: Tyrosine-protein kinase Fgr (Homo sapiens, UniProt P09769); details: not given
Sequence (P09769 whole entry): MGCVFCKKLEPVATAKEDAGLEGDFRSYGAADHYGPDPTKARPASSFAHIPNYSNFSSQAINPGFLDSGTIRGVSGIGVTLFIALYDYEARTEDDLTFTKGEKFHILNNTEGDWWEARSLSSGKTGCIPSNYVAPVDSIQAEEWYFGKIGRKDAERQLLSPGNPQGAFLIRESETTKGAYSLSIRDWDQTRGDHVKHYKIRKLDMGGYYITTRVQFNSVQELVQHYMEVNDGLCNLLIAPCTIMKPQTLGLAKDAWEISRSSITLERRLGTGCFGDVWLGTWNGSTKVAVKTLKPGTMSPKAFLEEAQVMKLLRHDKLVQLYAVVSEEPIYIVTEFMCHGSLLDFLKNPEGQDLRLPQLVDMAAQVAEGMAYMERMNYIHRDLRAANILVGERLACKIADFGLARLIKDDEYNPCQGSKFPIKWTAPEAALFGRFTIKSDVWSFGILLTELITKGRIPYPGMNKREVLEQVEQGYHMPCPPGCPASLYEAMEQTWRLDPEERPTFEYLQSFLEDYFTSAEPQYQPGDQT

| SMILES | Kd |
| --- | --- |
| Cc1cc(-c2cc(O)ccc2Cl)cc2nnc(Nc3ccc(OCCN4CCCC4)cc3)nc12 | > 30 µM (inactive) |
| CC[C@H](Nc1ncnc2[nH]cnc12)c1nc2cccc(F)c2c(=O)n1-c1ccccc1 [IDELALISIB] | > 30 µM (inactive) |
| CC(=O)Nc1cccc(-n2c(=O)n(C3CC3)c(=O)c3c(Nc4ccc(I)cc4F)n(C)c(=O)c(C)c32)c1 [TRAMETINIB] | > 30 µM (inactive) |
| CC[C@@H]1C(=O)N(C)c2cnc(Nc3ccc(C(=O)N[C@H]4CC[C@H](N5CCN(CC6CC6)CC5)CC4)cc3OC)nc2N1C(C)C [VOLASERTIB] | > 30 µM (inactive) |

target: Serine/threonine-protein kinase 38 (Homo sapiens, UniProt Q15208); details: not given
Sequence (Q15208 whole entry): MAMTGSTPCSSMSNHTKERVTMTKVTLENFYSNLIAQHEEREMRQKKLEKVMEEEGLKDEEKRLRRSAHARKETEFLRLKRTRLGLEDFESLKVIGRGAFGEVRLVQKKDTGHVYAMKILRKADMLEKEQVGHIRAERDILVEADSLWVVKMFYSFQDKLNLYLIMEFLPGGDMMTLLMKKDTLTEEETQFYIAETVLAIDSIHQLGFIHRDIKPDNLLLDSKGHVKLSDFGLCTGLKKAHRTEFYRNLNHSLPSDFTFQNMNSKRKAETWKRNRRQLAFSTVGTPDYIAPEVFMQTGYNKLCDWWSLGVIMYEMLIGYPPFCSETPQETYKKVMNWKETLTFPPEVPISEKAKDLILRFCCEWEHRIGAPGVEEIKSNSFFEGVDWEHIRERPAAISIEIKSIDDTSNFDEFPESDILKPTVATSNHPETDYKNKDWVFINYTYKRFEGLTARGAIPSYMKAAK

| SMILES | Kd |
| --- | --- |
| CC[C@H](Nc1ncnc2[nH]cnc12)c1nc2cccc(F)c2c(=O)n1-c1ccccc1 [IDELALISIB] | > 30 µM (inactive) |

target: Eukaryotic peptide chain release factor GTP-binding subunit ERF3B (Homo sapiens, UniProt Q8IYD1); details: not given
Sequence (Q8IYD1 whole entry): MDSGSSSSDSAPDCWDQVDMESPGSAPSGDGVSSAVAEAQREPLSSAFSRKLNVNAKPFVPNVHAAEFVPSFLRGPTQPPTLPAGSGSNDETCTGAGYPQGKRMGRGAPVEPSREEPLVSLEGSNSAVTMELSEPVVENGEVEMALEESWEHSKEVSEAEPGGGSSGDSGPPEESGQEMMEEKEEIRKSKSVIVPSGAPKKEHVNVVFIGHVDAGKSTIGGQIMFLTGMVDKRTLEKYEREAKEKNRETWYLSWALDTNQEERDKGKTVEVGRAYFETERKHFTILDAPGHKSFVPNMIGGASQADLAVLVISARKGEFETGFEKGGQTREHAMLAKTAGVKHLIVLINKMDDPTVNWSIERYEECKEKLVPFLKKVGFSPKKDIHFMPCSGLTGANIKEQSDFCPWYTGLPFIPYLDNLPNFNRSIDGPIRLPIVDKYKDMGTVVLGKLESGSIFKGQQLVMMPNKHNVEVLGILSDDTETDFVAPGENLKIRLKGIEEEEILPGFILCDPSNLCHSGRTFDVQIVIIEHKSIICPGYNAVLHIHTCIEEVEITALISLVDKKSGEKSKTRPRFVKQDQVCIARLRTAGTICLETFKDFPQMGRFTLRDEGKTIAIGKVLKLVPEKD

| SMILES | Kd |
| --- | --- |
| Cc1ccc(NC(=O)c2ccc(CN3CC[C@H](N(C)C)C3)c(C(F)(F)F)c2)cc1Nc1nccc(-c2cncnc2)n1 [BAFETINIB] | > 30 µM (inactive) |
| CC(=O)Nc1cccc(-n2c(=O)n(C3CC3)c(=O)c3c(Nc4ccc(I)cc4F)n(C)c(=O)c(C)c32)c1 [TRAMETINIB] | > 30 µM (inactive) |

target: ALK tyrosine kinase receptor (Homo sapiens, UniProt Q9UM73); type: subcellular, K-562, COLO 205, SK-N-BE(2) and MV-4-11, Cell lysate; details: read-out: Kd apparent

| SMILES | Kd |
| --- | --- |
| Cc1cc(-c2cc(O)ccc2Cl)cc2nnc(Nc3ccc(OCCN4CCCC4)cc3)nc12 | > 30 µM (inactive) |
| Cc1ccc(NC(=O)c2ccc(CN3CC[C@H](N(C)C)C3)c(C(F)(F)F)c2)cc1Nc1nccc(-c2cncnc2)n1 [BAFETINIB] | > 30 µM (inactive) |

target: Activin receptor type-1-like (Homo sapiens, UniProt P37023); details: not given
Sequence (P37023 whole entry): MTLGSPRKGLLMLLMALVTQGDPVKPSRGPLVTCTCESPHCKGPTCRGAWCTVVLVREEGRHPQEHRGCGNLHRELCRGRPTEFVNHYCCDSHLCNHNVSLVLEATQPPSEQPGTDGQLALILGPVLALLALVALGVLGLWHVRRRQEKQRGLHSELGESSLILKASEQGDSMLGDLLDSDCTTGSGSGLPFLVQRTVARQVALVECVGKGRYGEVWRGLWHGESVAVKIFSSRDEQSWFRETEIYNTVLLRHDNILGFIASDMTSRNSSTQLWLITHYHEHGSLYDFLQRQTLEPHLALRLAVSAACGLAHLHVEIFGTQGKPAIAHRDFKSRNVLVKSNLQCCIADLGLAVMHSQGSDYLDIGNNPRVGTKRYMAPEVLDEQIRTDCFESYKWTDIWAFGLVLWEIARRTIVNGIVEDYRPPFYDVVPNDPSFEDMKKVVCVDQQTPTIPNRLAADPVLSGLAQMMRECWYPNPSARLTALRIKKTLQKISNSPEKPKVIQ

| SMILES | Kd |
| --- | --- |
| CC(=O)Nc1cccc(-n2c(=O)n(C3CC3)c(=O)c3c(Nc4ccc(I)cc4F)n(C)c(=O)c(C)c32)c1 [TRAMETINIB] | > 30 µM (inactive) |

target: Ras-related C3 botulinum toxin substrate 1 (Homo sapiens, UniProt P63000); details: not given

| SMILES | Kd |
| --- | --- |
| Cc1cc(-c2cc(O)ccc2Cl)cc2nnc(Nc3ccc(OCCN4CCCC4)cc3)nc12 | > 30 µM (inactive) |
| O=C(c1ccc(F)c(F)c1Nc1ccc(I)cc1F)N1CC(O)([C@@H]2CCCCN2)C1 [COBIMETINIB] | > 30 µM (inactive) |

target: T3, Tyrosine-protein kinase Mer (Homo sapiens, UniProt Q12866); details: not given
T3 sequence (Q12866 whole entry): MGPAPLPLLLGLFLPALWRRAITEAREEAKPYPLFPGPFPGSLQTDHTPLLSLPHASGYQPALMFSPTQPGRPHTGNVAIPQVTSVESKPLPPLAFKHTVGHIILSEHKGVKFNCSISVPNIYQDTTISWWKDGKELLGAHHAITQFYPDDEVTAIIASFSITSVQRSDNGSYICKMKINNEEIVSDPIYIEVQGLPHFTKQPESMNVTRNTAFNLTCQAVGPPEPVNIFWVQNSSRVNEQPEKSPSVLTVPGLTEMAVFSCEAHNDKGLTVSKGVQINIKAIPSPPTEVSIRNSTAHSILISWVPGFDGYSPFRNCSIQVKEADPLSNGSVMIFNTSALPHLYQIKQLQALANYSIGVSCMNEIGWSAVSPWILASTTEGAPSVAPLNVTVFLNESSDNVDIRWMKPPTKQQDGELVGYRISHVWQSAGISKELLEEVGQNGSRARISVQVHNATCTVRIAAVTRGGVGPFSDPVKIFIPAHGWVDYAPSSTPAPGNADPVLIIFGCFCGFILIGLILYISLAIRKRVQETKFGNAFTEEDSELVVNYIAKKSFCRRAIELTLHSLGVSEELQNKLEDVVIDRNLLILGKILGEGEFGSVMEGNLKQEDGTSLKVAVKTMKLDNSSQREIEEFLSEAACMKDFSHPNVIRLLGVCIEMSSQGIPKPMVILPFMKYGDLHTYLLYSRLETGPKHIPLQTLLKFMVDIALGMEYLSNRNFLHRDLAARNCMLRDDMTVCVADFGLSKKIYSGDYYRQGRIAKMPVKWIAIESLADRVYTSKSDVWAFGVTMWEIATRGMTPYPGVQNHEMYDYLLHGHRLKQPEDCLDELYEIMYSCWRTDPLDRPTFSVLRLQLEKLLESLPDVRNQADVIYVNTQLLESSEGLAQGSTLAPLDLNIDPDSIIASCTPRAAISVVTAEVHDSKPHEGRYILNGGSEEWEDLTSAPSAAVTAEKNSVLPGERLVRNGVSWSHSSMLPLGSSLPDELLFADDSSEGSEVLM

| SMILES | Kd |
| --- | --- |
| CCc1cnn2c(NCc3ccc[n+]([O-])c3)cc(N3CCCC[C@H]3CCO)nc12 [DINACICLIB] | > 30 µM (inactive) |
